Source: patent US12655116B2, “Substituted isophthalic acid diamides” (Bayer Aktiengesellschaft, priority 2020, dated 2026)

Tests used:
[1] = system: PHBPU; test: Post-emergence herbicidal action against PHBPU; assay type: in vivo, Pharbitis purpurea
Outline: (§1)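 Weeds in sandy loam soil received a post-emergence spray at the one-leaf stage. Compounds were applied as WP or EC in water, 600 to 800 l/ha, with 0.2% wetting agent. Activity in % was judged visually after roughly 3 weeks against untreated plants.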

[2] = system: ABUTH; test: Pre-emergence herbicidal action against ABUTH; assay type: in vivo, Abutilon theophrasti
Outline: (§2)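 Visual rating at 3 weeks vs untreated pots; 0–100% scale, 100% = plants died. Treatment: aqueous WP/EC spray onto covering soil, 600–800 l/ha, 0.2% wetter, seeds in sandy loam.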

[3] = system: SETVI; test: Post-emergence herbicidal action against SETVI; assay type: in vivo, Setaria viridis
Outline: as §1

[4] = system: AMARE; test: Pre-emergence herbicidal action against AMARE; assay type: in vivo, Amaranthus retroflexus
Outline: as §2

[5] = system: POLCO; test: Pre-emergence herbicidal action against POLCO; assay type: in vivo, Polygonum convolvulus; details: dosage 80 g/ha
Outline: as §2

[6] = system: MATIN; test: Pre-emergence herbicidal action against MATIN; assay type: in vivo, Matricaria inodora
Outline: as §2

[7] = system: ALOMY; test: Pre-emergence herbicidal action against ALOMY; assay type: in vivo, Alopecurus myosuroides; details: pre-emergence
Outline: as §2

[8] = system: DIGSA; test: Post-emergence herbicidal action against DIGSA; assay type: in vivo, Digitaria sanguinalis
Outline: as §1

[9] = system: VERPE; test: Post-emergence herbicidal action against VERPE; assay type: in vivo, Veronica persica; details: 20 g/ha
Outline: as §1

[10] = system: VIOTR; test: Pre-emergence herbicidal action against VIOTR; assay type: in vivo, Viola tricolor; details: dosage 80 g/ha
Outline: as §2

[11] = system: SETVI; test: Pre-emergence herbicidal action against SETVI; assay type: in vivo, Setaria viridis; details: dosage 80 g/ha
Outline: as §2

[12] = system: ALOMY; test: Post-emergence herbicidal action against ALOMY; assay type: in vivo, Alopecurus myosuroides; details: visual assessment about 3 weeks after treatment vs untreated controls
Outline: as §1

[13] = system: AMARE; test: Post-emergence herbicidal action against AMARE; assay type: in vivo, Amaranthus retroflexus; details: 20 g/ha, visual assessment about 3 weeks after treatment, 100% = plants have died, 0% = like control plants
Outline: as §1

[14] = system: ECHCG; test: Pre-emergence herbicidal action against ECHCG; assay type: in vivo, Echinochloa crus-galli
Outline: as §2

[15] = system: LOLRI; test: Pre-emergence herbicidal action against LOLRI; assay type: in vivo, Lolium rigidum; details: 80 g/ha
Outline: as §2

[16] = system: VIOTR; test: Post-emergence herbicidal action against VIOTR; assay type: in vivo, Viola tricolor
Outline: as §1

[17] = system: DIGSA; test: Pre-emergence herbicidal action against DIGSA; assay type: in vivo, Digitaria sanguinalis
Outline: as §2

[18] = system: ECHCG; test: Post-emergence herbicidal action against ECHCG; assay type: in vivo, Echinochloa crus-galli
Outline: as §1

[19] = system: ABUTH; test: Post-emergence herbicidal action against ABUTH; assay type: in vivo, Abutilon theophrasti; details: visual assessment about 3 weeks after treatment vs untreated controls
Outline: as §1

[20] = system: VERPE; test: Pre-emergence herbicidal action against VERPE; assay type: in vivo, Veronica persica; details: dosage 80 g/ha
Outline: as §2

[21] = system: MATIN; test: Post-emergence herbicidal action against MATIN; assay type: in vivo, Matricaria inodora; details: Tripleurospermum inodorum, 504 h, dosage 20 g/ha
Outline: as §1

[22] = system: AVEFA; test: Pre-emergence herbicidal action against AVEFA; assay type: in vivo, Avena fatua; details: Avena fatua, 504 h, pre-emergence
Outline: as §2

[23] = system: PHBPU; test: Pre-emergence herbicidal action against PHBPU; assay type: in vivo, Pharbitis purpurea; details: Ipomoea purpurea, 504 h, dosage 80 g/ha
Outline: as §2

[24] = 80 g/ha, scored visually after 3 weeks vs untreated controls (100% = plants have died, 0% = like control plants)

Compound: Cc1c(C(=O)Nc2nnnn2C)ccc(C(F)F)c1C(=O)NCC1CC1 [Example 1-47]
- Post-emergence action against PHBPU in % ([1]; dosage 5 g/ha): 80%
- Post-emergence action against PHBPU in % ([1]; dosage 20 g/ha): 90%
- Pre-emergence action against ABUTH (herbicidal activity) [2, 24]: 100%
- Pre-emergence action against ABUTH (herbicidal activity in percent) ([2]; dosage 20 g/ha, scored visually after 3 weeks vs untreated controls, 100% = plants have died, 0% = like control plants): 100%
- Post-emergence action against SETVI in % ([3]; dosage 20 g/ha): 80%
- Pre-emergence action against AMARE in % ([4]; 20 g/ha, scored visually after 3 weeks vs untreated controls, 100% = plants have died, 0% = like control plants): 100%
- Pre-emergence action against AMARE in % [4, 24]: 100%
- Pre-emergence action against POLCO in % [5]: 100%
- Pre-emergence action against MATIN in % ([6]; dosage 20 g/ha): 80%
- Pre-emergence action against MATIN in % ([6]; dosage 80 g/ha): 100%
- Pre-emergence action against ALOMY (herbicidal activity) [7, 24]: 90%
- Post-emergence action against DIGSA ([8]; 20 g/ha): 90%
- Post-emergence action against VERPE in % [9]: 80%
- Pre-emergence action against VIOTR in % [10]: 100%
- Pre-emergence action against SETVI in % [11]: 100%
- Post-emergence action against ALOMY in % ([12]; dosage 5 g/ha): 80%
- Post-emergence action against ALOMY in % ([12]; dosage 20 g/ha): 90%
- Post-emergence action at 20 g/ha against AMARE in % [13]: 90%
- Pre-emergence action against ECHCG in % ([14]; 80 g/ha): 100%
- Pre-emergence action against LOLRI in % [15]: 80%
- Post-emergence action against VIOTR in % ([16]; 20 g/ha): 80%
- Pre-emergence action against DIGSA in % ([17]; dosage 20 g/ha): 100%
- Pre-emergence action against DIGSA in % ([17]; dosage 80 g/ha): 100%
- Post-emergence action against ECHCG in % ([18]; dosage 5 g/ha): 90%
- Post-emergence action against ECHCG in % ([18]; dosage 20 g/ha): 90%
- Post-emergence action against ABUTH in % ([19]; dosage 20 g/ha): 80%
- Pre-emergence action against VERPE in % [20]: 100%

Compound: CNC(=O)c1c(Br)ccc(C(=O)Nc2nnnn2C)c1Cl [Example 1-177]
- pest or weed control at 20 g/ha ([1]; Ipomoea purpurea, 504 h, dosage 20 g/ha): 80%
- pest or weed control at 80 g/ha ([2]; Abutilon theophrasti, 504 h, 80 g/ha, scored visually after 3 weeks vs untreated controls (100% = plants have died, 0% = like control plants)): 100%
- pest or weed control at 5 g/ha ([3]; Setaria viridis, 504 h, dosage 5 g/ha): 90%
- pest or weed control at 20 g/ha ([3]; Setaria viridis, 504 h, dosage 20 g/ha): 90%
- pest or weed control at 20 g/ha [21]: 90%
- pest or weed control at 20 g/ha ([4]; Amaranthus retroflexus, 504 h, 20 g/ha, scored visually after 3 weeks vs untreated controls, 100% = plants have died, 0% = like control plants): 100%
- pest or weed control at 80 g/ha ([4]; Amaranthus retroflexus, 504 h, 80 g/ha, scored visually after 3 weeks vs untreated controls, 100% = plants have died, 0% = like control plants): 100%
- pest or weed control at 20 g/ha ([6]; Tripleurospermum inodorum, 504 h, dosage 20 g/ha): 90%
- pest or weed control at 80 g/ha ([6]; Tripleurospermum inodorum, 504 h, dosage 80 g/ha): 100%
- pest or weed control at 80 g/ha ([7]; Alopecurus myosuroides, 504 h, 80 g/ha, scored visually after 3 weeks vs untreated controls (100% = plants have died, 0% = like control plants)): 100%
- pest or weed control at 20 g/ha ([7]; Alopecurus myosuroides, 504 h, 20 g/ha, scored visually after 3 weeks, 100% = plants have died, 0% = like control plants): 80%
- pest or weed control at 5 g/ha ([8]; Digitaria sanguinalis, 504 h, 5 g/ha): 90%
- pest or weed control at 20 g/ha ([8]; Digitaria sanguinalis, 504 h, 20 g/ha): 90%
- pest or weed control at 80 g/ha ([22]; 80 g/ha): 100%
- pest or weed control at 20 g/ha ([22]; 20 g/ha, scored visually after 3 weeks, 100% = plants have died, 0% = like control plants): 80%
- pest or weed control at 20 g/ha ([9]; Veronica persica, 504 h): 80%
- pest or weed control at 80 g/ha ([10]; Viola tricolor, 504 h): 100%
- pest or weed control at 80 g/ha ([11]; Setaria viridis, 504 h): 100%
- pest or weed control at 20 g/ha ([12]; Alopecurus myosuroides, 504 h, dosage 20 g/ha): 90%
- pest or weed control at 20 g/ha ([13]; Amaranthus retroflexus, 504 h): 100%
- pest or weed control at 20 g/ha ([14]; Echinochloa crus-galli, 504 h, 20 g/ha): 80%
- pest or weed control at 80 g/ha ([14]; Echinochloa crus-galli, 504 h, 80 g/ha): 100%
- pest or weed control at 80 g/ha [23]: 80%
- pest or weed control at 80 g/ha ([15]; Lolium rigidum, 504 h): 90%
- pest or weed control at 5 g/ha ([16]; Viola tricolor, 504 h, 5 g/ha): 90%
- pest or weed control at 20 g/ha ([16]; Viola tricolor, 504 h, 20 g/ha): 90%
- pest or weed control at 20 g/ha ([17]; Digitaria sanguinalis, 504 h, dosage 20 g/ha): 100%
- pest or weed control at 80 g/ha ([17]; Digitaria sanguinalis, 504 h, dosage 80 g/ha): 100%
- pest or weed control at 20 g/ha ([18]; Echinochloa crus-galli, 504 h, dosage 20 g/ha): 90%
- pest or weed control at 5 g/ha ([19]; Abutilon theophrasti, 504 h, dosage 5 g/ha): 90%
- pest or weed control at 20 g/ha ([19]; Abutilon theophrasti, 504 h, dosage 20 g/ha): 90%
- pest or weed control at 80 g/ha ([20]; Veronica persica, 504 h): 100%
